# Source: PubChem BioAssay AID330 (DTP/NCI, 2004)
# Values joined by “and” are separate entries in the source; they are usually repeats but may differ in a detail not shown here. Identical values can stand only once. Inconclusive results and toxic doses are left out.
# Tested on: P388 leukemia ip, CD2F1 mice, survival T/C
# Assay: NCI In Vivo Anticancer Drug Screen. Data for tumor model P388 Leukemia (intraperitoneal) in CD2F1 (CDF1) mice
# Conditions: endpoint: median survival time, higher = longer survival
# Summary of the method: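 Mice carrying the transplanted tumor received test compound or vehicle. Survival was recorded in each group, and the value is the treated-group measurement divided by that of the vehicle-treated control group.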
# [1] = dose: 60.0 mg/kg/injection, schedule: Q01DX005 (ip), vehicle: saline with Tween-80
# [2] = dose: 120.0 mg/kg/injection, schedule: Q01DX005 (ip), vehicle: saline with Tween-80
# [3] = dose: 240.0 mg/kg/injection, schedule: Q01DX005 (ip), vehicle: saline with Tween-80
# [4] = dose: 50.0 mg/kg/injection, schedule: Q01DX009 (ip), vehicle: Klucel (hydroxypropylcellulose) (HPC)
# [5] = dose: 100.0 mg/kg/injection, schedule: Q01DX009 (ip), vehicle: Klucel (hydroxypropylcellulose) (HPC)
# [6] = dose: 200.0 mg/kg/injection, schedule: Q01DX009 (ip), vehicle: Klucel (hydroxypropylcellulose) (HPC)
# [7] = dose: 50.0 mg/kg/injection, schedule: Q01DX005 (ip), vehicle: Klucel (hydroxypropylcellulose) (HPC)
# [8] = dose: 100.0 mg/kg/injection, schedule: Q01DX005 (ip), vehicle: Klucel (hydroxypropylcellulose) (HPC)
# [9] = dose: 200.0 mg/kg/injection, schedule: Q01DX005 (ip), vehicle: Klucel (hydroxypropylcellulose) (HPC)
# [10] = dose: 50.0 mg/kg/injection, schedule: Q01DX009 (ip), vehicle: saline
# [11] = dose: 100.0 mg/kg/injection, schedule: Q01DX009 (ip), vehicle: saline
# [12] = dose: 50.0 mg/kg/injection, schedule: Q01DX009 (ip), vehicle: saline with Tween-80
# [13] = dose: 100.0 mg/kg/injection, schedule: Q01DX009 (ip), vehicle: saline with Tween-80
# [14] = dose: 200.0 mg/kg/injection, schedule: Q01DX009 (ip), vehicle: saline with Tween-80
# [15] = dose: 25.0 mg/kg/injection, schedule: Q01DX009 (ip), vehicle: saline with Tween-80
# [16] = dose: 6.25 mg/kg/injection, schedule: Q01DX009 (ip), vehicle: saline
# [17] = dose: 12.5 mg/kg/injection, schedule: Q01DX009 (ip), vehicle: saline
# [18] = dose: 25.0 mg/kg/injection, schedule: Q01DX009 (ip), vehicle: saline
smiles,measurement,setting,value
CC(=O)NC1=C(N2CC2)C(=O)C(NC(C)=O)=C(N2CC2)C1=O,T/C,"dose: 125.0 micrograms/kg/injection, schedule: Q01DX010 (ip), vehicle: saline",115 % of control
same,T/C,"dose: 500.0 micrograms/kg/injection, schedule: Q01DX010 (ip), vehicle: saline",215 % of control
same,T/C,"dose: 1000.0 micrograms/kg/injection, schedule: Q01DX010 (ip), vehicle: saline",255 % of control
CN1CCC2c3c([nH]c4ccccc34)C(C)(C)OC2C1 (stereo not drawn),T/C,[1],111 % of control
same,T/C,[2],113 % of control
same,T/C,[3],118 % of control
COc1ccc(/C=C2\NC(c3ccccc3)OC2=O)cc1OC (stereo not drawn),T/C,[4],98 % of control
same,T/C,[5],89 % of control
same,T/C,[6],100 % of control
CCCCCCCCCCCC[As](CCCCCCCCCCCC)SCC1OC(OC(C)=O)C(OC(C)=O)C(OC(C)=O)C1OC(C)=O (stereo not drawn),T/C,[4],111 % of control
same,T/C,[5],104 % of control
same,T/C,[6],105 % of control
CS(=O)(=O)Nc1cccc2c1-c1ccccc1C2=O,T/C,[7],96 % of control
same,T/C,[8],101 % of control
same,T/C,[9],88 % of control
CC1CC[P+](C)(c2ccccc2)c2ccccc21 (stereo not drawn),T/C,"dose: 6.25 mg/kg/injection, schedule: Q04DX002 (ip), vehicle: saline",100 % of control
same,T/C,"dose: 12.5 mg/kg/injection, schedule: Q04DX002 (ip), vehicle: saline",103 % of control
CN1CCOC(N2CCOCC2)C(C)(C)C1 (stereo not drawn),T/C,"dose: 50.0 mg/kg/injection, schedule: Q01DX005 (ip), vehicle: saline",92 % of control
same,T/C,"dose: 100.0 mg/kg/injection, schedule: Q01DX005 (ip), vehicle: saline",88 % of control
same,T/C,"dose: 200.0 mg/kg/injection, schedule: Q01DX005 (ip), vehicle: saline",100 % of control
CCN(CC)C(CC(=O)C(C)(C)C)=NCCCN1CCN(C)CC1,T/C,[10],98 % of control
same,T/C,[11],100 % of control
COc1cc2cc(c1Cl)N(C)C(=O)CC(OC(=O)C(C)N(C)C(=O)C(C)C)C1(C)OC1C(C)C1CC(O)(NC(=O)O1)C(OC)/C=C/C=C(C)C2O (stereo not drawn),T/C,"dose: 0.02 mg/kg/injection, schedule: Q01DX009 (ip), vehicle: steriod suspending solution",168 % of control
same,T/C,"dose: 0.05 mg/kg/injection, schedule: Q01DX009 (ip), vehicle: steriod suspending solution",150 % of control
same,T/C,"dose: 0.1 mg/kg/injection, schedule: Q01DX009 (ip), vehicle: steriod suspending solution",186 % of control
same,T/C,"dose: 0.2 mg/kg/injection, schedule: Q01DX009 (ip), vehicle: steriod suspending solution",213 % of control
same,T/C,"dose: 32.0 micrograms/kg/injection, schedule: Q01DX009 (ip), vehicle: distilled water + alcohol",159 % of control
C1=CC(=NN=P(c2ccccc2)(c2ccccc2)c2ccccc2)C=C1,T/C,[12],89 % of control
same,T/C,[13],102 % of control
same,T/C,[14],97 % of control
Cc1ccc(S(=O)(=O)Nc2nnc(NS(=O)(=O)c3ccc(C)cc3)nn2)cc1,T/C,"dose: 12.5 mg/kg/injection, schedule: Q01DX009 (ip), vehicle: other",96 % of control
same,T/C,"dose: 25.0 mg/kg/injection, schedule: Q01DX009 (ip), vehicle: other",96 % of control
same,T/C,"dose: 50.0 mg/kg/injection, schedule: Q01DX009 (ip), vehicle: other",96 % of control
same,T/C,"dose: 100.0 mg/kg/injection, schedule: Q01DX009 (ip), vehicle: other",91 % of control
same,T/C,"dose: 200.0 mg/kg/injection, schedule: Q01DX009 (ip), vehicle: other",94 % of control
CC1(C)[C@H]2Cc3c(ccc4c3C(=O)OC4=O)[C@@H]1C2,T/C,"dose: 50.0 mg/kg/injection, schedule: Q01DX005 (ip), vehicle: Klucel + Tween-80",107 % of control
same,T/C,"dose: 100.0 mg/kg/injection, schedule: Q01DX005 (ip), vehicle: Klucel + Tween-80",112 % of control
O=C(O)CC1(C(=O)O)CC2C=CC1C2 (stereo not drawn),T/C,[1],104 % of control
same,T/C,[2],91 % of control
same,T/C,[3],91 % of control
Clc1nnc(Cl)s1,T/C,[15],96 % of control
same,T/C,[12],95 % of control
same,T/C,[13],101 % of control
O=C(Nc1cccc2c(OC(=O)C(Cl)Cl)c(N=Nc3ccc(S(=O)(=O)Nc4nccs4)cc3)cc(N=Nc3ccc(S(=O)(=O)Nc4nccs4)cc3)c12)C(Cl)Cl,T/C,[12],109 % of control and 100 % of control and 104 % of control
same,T/C,[13],108 % of control and 103 % of control and 106 % of control
same,T/C,[14],107 % of control
C=C(C)c1c2c(SC)ccc(SC)c2cc2c(SC)ccc(SC)c12,T/C,"dose: 100.0 mg/kg/injection, schedule: Q01DX001 (ip), vehicle: saline with Tween-80",96 % of control
same,T/C,"dose: 200.0 mg/kg/injection, schedule: Q01DX001 (ip), vehicle: saline with Tween-80",98 % of control
same,T/C,"dose: 400.0 mg/kg/injection, schedule: Q01DX001 (ip), vehicle: saline with Tween-80",95 % of control
CCCCCCCCCCCCCCCCCCOCC(COP(=O)([O-])OCC[N+](C)(C)C)OC (stereo not drawn),T/C,"dose: 3.12 mg/kg/injection, schedule: Q01DX009 (ip), vehicle: saline",103 % of control
same,T/C,[16],109 % of control
same,T/C,"dose: 12.5 mg/kg/injection, schedule: Q01DX005 (ip), vehicle: saline with Tween-80",109 % of control
same,T/C,[17],107 % of control and 117 % of control
same,T/C,[18],122 % of control and 124 % of control
same,T/C,[10],88 % of control
CC1=C(C(=O)Nc2ccccc2C)C(c2cccc([N+](=O)[O-])c2)C(C(=O)Nc2ccccc2C)=C(C)N1,T/C,"dose: 15.0 mg/kg/injection, schedule: Q01DX005 (ip), vehicle: Klucel (hydroxypropylcellulose) (HPC)",102 % of control
same,T/C,"dose: 30.0 mg/kg/injection, schedule: Q01DX005 (ip), vehicle: Klucel (hydroxypropylcellulose) (HPC)",93 % of control
same,T/C,"dose: 60.0 mg/kg/injection, schedule: Q01DX005 (ip), vehicle: Klucel (hydroxypropylcellulose) (HPC)",88 % of control and 97 % of control
CCOC(=O)/C=C(/C)Nc1ccc2c(c1)OCO2,T/C,[7],103 % of control
same,T/C,[8],110 % of control
same,T/C,[9],111 % of control
O=C1N=C2SCCCN2C1(c1ccccc1)c1ccccc1,T/C,[1],97 % of control
same,T/C,[2],92 % of control
same,T/C,[3],100 % of control
ClC1c2ccccc2-c2nsnc2C1Cl (stereo not drawn),T/C,[15],107 % of control
same,T/C,[12],90 % of control
same,T/C,[13],90 % of control
same,T/C,[14],100 % of control
O=NNc1nc2ccccc2[nH]1,T/C,"dose: 3.12 mg/kg/injection, schedule: Q01DX009 (ip), vehicle: water",99 % of control
same,T/C,"dose: 6.25 mg/kg/injection, schedule: Q01DX009 (ip), vehicle: water",103 % of control
same,T/C,"dose: 12.5 mg/kg/injection, schedule: Q01DX009 (ip), vehicle: water",109 % of control
same,T/C,"dose: 25.0 mg/kg/injection, schedule: Q01DX009 (ip), vehicle: water",103 % of control and 98 % of control
same,T/C,"dose: 50.0 mg/kg/injection, schedule: Q01DX009 (ip), vehicle: water",100 % of control and 97 % of control
same,T/C,"dose: 100.0 mg/kg/injection, schedule: Q01DX009 (ip), vehicle: water",97 % of control
same,T/C,"dose: 200.0 mg/kg/injection, schedule: Q01DX009 (ip), vehicle: water",91 % of control
CCn1c(=S)[nH]c2sc3c(c2c1=O)CCCC3,T/C,[1],92 % of control
same,T/C,[2],89 % of control
NCC(=O)O,T/C,"dose: 3.75 mg/kg/injection, schedule: Q01DX005 (ip), vehicle: saline",99 % of control
same,T/C,"dose: 7.5 mg/kg/injection, schedule: Q01DX005 (ip), vehicle: saline",100 % of control
same,T/C,"dose: 15.0 mg/kg/injection, schedule: Q01DX005 (ip), vehicle: saline",99 % of control and 94 % of control
same,T/C,[10],94 % of control
same,T/C,[11],105 % of control
same,T/C,"dose: 200.0 mg/kg/injection, schedule: Q01DX009 (ip), vehicle: saline",110 % of control
CC1(C)CC2(CC3(C1)S(=O)(=O)CCS3(=O)=O)S(=O)(=O)CCS2(=O)=O,T/C,[16],103 % of control
same,T/C,[17],100 % of control
same,T/C,[18],116 % of control
same,T/C,[10],100 % of control
CCOC(=O)C(CC(=O)O)=C1c2ccccc2-c2ccccc21,T/C,[1],104 % of control
same,T/C,[2],113 % of control
same,T/C,[3],107 % of control
CCOC(=O)c1ccc(N)[n+](C2OC(COC(=O)c3ccccc3)C(OC(=O)c3ccccc3)C2OC(=O)c2ccccc2)c1 (stereo not drawn),T/C,"dose: 50.0 mg/kg/injection, schedule: Q01DX005 (ip), vehicle: saline with Tween-80",92 % of control
same,T/C,"dose: 100.0 mg/kg/injection, schedule: Q01DX005 (ip), vehicle: saline with Tween-80",107 % of control
same,T/C,"dose: 200.0 mg/kg/injection, schedule: Q01DX005 (ip), vehicle: saline with Tween-80",112 % of control
